According to US20090118330A1, “Diurea derivatives” (priority 2004, published 2009):
Counter-ions that a name gives are not always drawn. Like-named read-outs stand apart in the source and are kept apart here.

Experiments:
Assay type in all cases: cell-based
[1] = tested on: IFN-γ production in human peripheral blood mononuclear cells; experiment: Inhibition of PMA/Ionomycin stimulated IFN-γ production in human PBMC; settings: mean±S.D., n=3
[2] = tested on: IL-6 production in human peripheral blood mononuclear cells; experiment: Inhibition of PMA/Ionomycin stimulated IL-6 production in human PBMC; settings: mean±S.D., n=3
human T-cells = experiment: Induction of apoptosis in human T-cells; settings: Annexin V, PARP cleavage, DNA fragmentation methods
Experimental: The induction of apoptosis can be observed by measuring Annexin V-binding to cells (Van Engeland et al. 1998). Primary human CD4^+ T cells were isolated from peripheral blood from healthy volunteers as described above. Cells were cultured immediately after purification at a density of 2×10^6 cells/ml in RPMI 1640 medium supplemented with 10% FCS, Gentamycin (100 μg/ml), Hepes (10 mM) and Sodium Pyruvate (1 mM). Cells were stained with annexin V-FITC and propidium iodide by using the ApoAlert Annexin V-FITC Apoptosis Kit (Clontech) according to manufacturer's instructions. Flow cytometry analysis was performed using a FACScan (Becton Dickinson). […] Cell lysates were prepared by lysing 2×10^6 PBS-washed cells in 50 μl buffer containing 20 mM Tris-HCl, pH 7.7, 250 mM NaCl, 3 mM EDTA, 3 mM EGTA 0.5% NP-40 supplemented with 1 mM p-nitrophenyl phosphate (PNPP), 10 mM β-glycerophosphate, 100 μM Na-vanadate and 1 mM phenylmethansulfonyl fluoride (PMSF). The protein concentrations were determined by using Bio-Rads protein assay and thereafter equal amounts of protein was loaded onto precasted NuPAGE™ Tris-Bis gels (Novex). After electrophoresis, the proteins were transferred to nitrocellulose membrane and probed with a polyclonal rabbit antibody directed against PARP (Roche). […]

[3] = tested on: IL-2 production in human T-cells (CD4+); experiment: Inhibition of PMA/Ionomycin stimulated IL-2 production in human T-cells; settings: T-cell
Experimental: The compounds to be evaluated were dissolved in DMSO and the dilution series of the compounds were prepared in DMSO. The series were further diluted in cell culture medium (RPMI 1640 with ultraglutamine, 10% foetal calf serum (FCS)) to obtain a final assay concentration of DMSO of 0.1% in 200 μl total volume. The compounds were plated (2 μl/well) on opaque white assay plates together with controls.
Peripheral blood mononuclear cells (PBMC) were isolated from human blood drawn from healthy volunteers, by density gradient separation over Ficoll-Paque. T-cells (CD4+) were obtained with positive selection using magnetic cell sorting (MACS). The cells were resuspended at 1×10^6 cells/ml in cell culture medium (RPMI 1640 with ultraglutamine, 10% FCS, 10 mM hepes, 1 mM sodium pyruvate and 0.1 mg/ml gentamicin).
The cells (1×10^5/well) were added to the assay plates containing the diluted compounds and pre-incubated for 30 min at 37° C. in a humidified atmosphere of 5% carbon dioxide. The cells were stimulated with 10 ng/ml phorbol myristate acetate (PMA) and 250 ng/ml ionomycin and the plates were incubated for 4 hours at 37° C. in a humidified atmosphere of 5% carbon dioxide. Approximately 100 μl of the supernatants were removed and transferred to a separate microtiter plate and the remaining cells were lysed (Nucleotide Releasing Reagent, ViaLight™, Cambrex). All the plates were kept at −20° C. pending analysis. Human interleukin-2 (IL-2) was analysed with a standard ELISA kit (OptEIA™, Pharmingen) according to the manufacturer's instructions. Viability was assessed by measuring adenosine triphosphate (ATP) content by adding luciferase (ATP monitoring reagent, ViaLight™, Cambrex) to the lysed cells and measuring luminescence, all according to the manufacturer's specifications.
The % effect of each concentration of compound was calculated compared to non-treated stimulated cells. Non-linear regression, a modified Hill-plot (y=(a−d)/(1+(x/c)b)+d) was used to calculate the concentration for y=50% (IC50).

[4] = tested on: TNF-α production in human peripheral blood mononuclear cells; experiment: Inhibition of PMA/Ionomycin stimulated TNF-α production in human PBMC; settings: mean±S.D., n=3
[5] = mean, n = 2, read-out: IC50 IL-2

IC50 [3, 5] [µM] | SMILES | also measured
2 | CCN(CC)CCN(CCNC(=O)Nc1cccc(C(F)(F)F)c1)C(=O)Nc1cccc(C(F)(F)F)c1.Cl [Compound A, 1-(2-Diethylamino-ethyl)-3-(3-trifluoromethyl-phenyl)-1-{2-[3-(3-trifluoromethyl-phenyl)-ureido]-ethyl}-urea, hydrochloride] | IC50 [1]: 4 ± 1 µM; IC50 [2]: 3 ± 1 µM; concentration at which significant apoptosis induction was observed (human T-cells): > 4 µM; IC50 ([3]; mean±S.D., n=30, read-out: IC50 of IL-2 production): 2 ± 1 µM; IC50 [4]: 3 ± 1 µM
2 | CCN(CC)CCN(CCNC(=O)Nc1cccc(C(F)(F)F)c1)C(=O)Nc1ccc(C(F)(F)F)cc1 [Compound B, 1-(2-Diethylamino-ethyl)-3-(4-trifluoromethyl-phenyl)-1-{2-[3-(3-trifluoromethyl-phenyl)-ureido]-ethyl}-urea] | –
2 | O=C(NCCN(CCN1CCCC1)C(=O)Nc1ccc(Cl)cc1)Nc1ccc(Cl)cc1 [Compound C, 3-(4-Chloro-phenyl)-1-{2-[3-(4-chloro-phenyl)-ureido]-ethyl}-1-(2-pyrrolidin-1-yl-ethyl)-urea] | –
2 | O=C(NCCN(CCN1CCCCC1)C(=O)Nc1cccc(Cl)c1)Nc1cccc(C(F)(F)F)c1 [Compound D, 1-{2-[3-(3-Chloro-phenyl)-1-(2-piperidin-1-yl-ethyl)ureido]-ethyl}-3-(3-trifluoromethyl-phenyl)-urea] | –
1 | CN(C)CCN(CCNC(=O)Nc1ccc(Br)cc1)C(=O)Nc1ccc(Br)cc1 [Compound E, 3-(4-Bromo-phenyl)-1-{2-[3-(4-bromo-phenyl)-ureido]-ethyl}-1-(2-dimethylamino-ethyl)-urea] | –
3 | CCN(CC)CCN(CCNC(=O)Nc1ccccc1)C(=O)Nc1ccc(C(F)(F)F)cc1 [Compound F, 1-(2-Diethylamino-ethyl)-1-[2-(3-phenyl-ureido)-ethyl]-3-(4-trifluoromethyl-phenyl)-urea] | –
1 | O=C(NCCN(CCN1CCCCC1)C(=O)Nc1ccc(C(F)(F)F)cc1)Nc1cccc(C(F)(F)F)c1 [Compound G, 1-(2-Piperidin-1-yl-ethyl)-3-(4-trifluoromethyl-phenyl)-1-{2-[3-(3-trifluoromethyl-phenyl)-ureido]-ethyl}-urea] | –
1 | O=C(NCCN(CCN1CCCC1)C(=O)Nc1ccc(C(F)(F)F)cc1)Nc1cccc(C(F)(F)F)c1 [Compound H, 1-{2-[1-(2-Pyrrolidin-1-yl-ethyl)-3-(4-trifluoromethylphenyl)-ureido]-ethyl}-3-(3-trifluoromethyl-phenyl)-urea] | –
5 | O=C(NCCN(CCN1CCCC1)C(=O)Nc1ccc(C(F)(F)F)cc1)Nc1ccc2ncccc2c1 [Compound I, 1-{2-[1-(2-Pyrrolidin-1-yl-ethyl)-3-(4-trifluoromethylphenyl)-ureido]-ethyl}-3-quinolin-6-yl-urea] | –
3 | O=C(NCCN(CCN1CCCC1)C(=O)Nc1ccc(C(F)(F)F)cc1)Nc1ccc(C(F)(F)F)cc1 [Compound J, 1-(2-Pyrrolidin-1-yl-ethyl)-3-(4-trifluoromethyl-phenyl)-1-{2-[3-(4-trifluoromethyl-phenyl)-ureido]-ethyl}-urea] | –
2 | O=C(NCCN(CCN1CCCCC1)C(=O)Nc1cccc(C(F)(F)F)c1)Nc1cccc(C(F)(F)F)c1 [Compound K, 1-(2-Piperidin-1-yl-ethyl)-3-(3-trifluoromethyl-phenyl)-1-{2-[3-(3-trifluoromethyl-phenyl)-ureido]-ethyl}-urea] | –
2 | CN(C)CCN(CCNC(=O)Nc1ccc(Cl)cc1)C(=O)Nc1ccc(C(F)(F)F)cc1 [Compound L, 1-{2-[3-(4-Chloro-phenyl)-ureido]-ethyl}-1-(2-dimethylamino-ethyl)-3-(4-trifluoromethyl-phenyl)-urea, hydrochloride] | –
2 | CCN(CC)CCN(CCNC(=O)Nc1cc(Cl)nc(Cl)c1)C(=O)Nc1ccc(Br)cc1 [Compound M, 1-{2-[3-(4-Bromo-phenyl)-1-(2-diethylamino-ethyl)ureido]-ethyl}-3-(2,6-dichloro-pyridin-4-yl)-urea] | –
